Results reported in PMC8286840, “Identifying SARS-CoV-2 antiviral compounds by screening for small molecule inhibitors of Nsp3 papain-like protease” (Biochemical Journal, 2021).
Where a name gives a salt, the structure may show the parent alone. Read-outs that look alike come from different tables or passages of the source.

Legend:
[1] = target: T1, SARS-CoV-2 PLpro (nsp3 1564–1878) (Severe acute respiratory syndrome coronavirus 2, UniProt P0DTD1); assay: biochemical; design: FRET-quenched peptide (Pro3) cleavage by PLpro, 10 min pre-incubation, slope over 20 min, normalised to no-compound control; conditions: low concentration screen, read-out: % of control remaining
[2] = target: T1, SARS-CoV-2 PLpro (nsp3 1564–1878); assay: biochemical; design: FRET-quenched peptide (Pro3) cleavage by PLpro, 10 min pre-incubation, slope over 20 min, normalised to no-compound control; conditions: high concentration screen, read-out: % of control remaining

COc1ccc2ccc(=O)oc2c1CC=C(C)C [Osthole]
remaining activity at 1.25 µM ([1]; Well no.=3440): 91.5% | remaining activity at 1.25 µM ([1]; Well no.=8333): 98.6% | remaining activity at 3.75 µM ([2]; Well no.=3440): 88.2% | remaining activity at 3.75 µM ([2]; Well no.=8333): 94.5%

CCCN(CCC)S(=O)(=O)c1ccc(C(=O)O)cc1 [Probenecid (Benemid)]
remaining activity at 1.25 µM ([1]; Well no.=4972): 95.9% | remaining activity at 3.75 µM ([2]; Well no.=4972): 91.7%

CC(Oc1c(Cl)cccc1Cl)C1=NCCN1 (centres unmarked) [Lofexidine.HCl]
remaining activity at 1.25 µM ([1]; Well no.=1971): 101% | remaining activity at 3.75 µM ([2]; Well no.=1971): 102%

N#Cc1ccnc(N2C(=O)CC[C@H]2C(=O)N(c2cncc(F)c2)[C@H](C(=O)NC2CC(F)(F)C2)c2ccccc2Cl)c1 [Ivosidenib (AG-120)]
remaining activity at 1.25 µM ([1]; Well no.=8630): 95.1% | remaining activity at 3.75 µM ([2]; Well no.=8630): 92.7%

C[C@H]1CC[C@@H](C(C)(C)O)CC2=C1CC[C@@H]2C [(-)-Guaiol]
remaining activity at 1.25 µM ([1]; Well no.=3076): 98.4% | remaining activity at 3.75 µM ([2]; Well no.=3076): 99.3%

CCCC(CCC)C(=O)O [Valproic acid sodium]
remaining activity at 1.25 µM ([1]; Well no.=812): 99.6% | remaining activity at 3.75 µM ([2]; Well no.=812): 99.4%

Cc1ccc(NC(=O)c2ccc(CN3CCN(C)CC3)cc2)cc1Nc1nccc(-c2cccnc2)n1 [Imatinib]
remaining activity at 1.25 µM ([1]; Well no.=1611): 102% | remaining activity at 1.25 µM ([1]; Well no.=2839): 99.7% | remaining activity at 3.75 µM ([2]; Well no.=2839): 102%

Nc1ncnc2c1ncn2C1CCCO1 (centres unmarked) [SQ22536]
remaining activity at 1.25 µM ([1]; Well no.=6236): 103% | remaining activity at 1.25 µM ([1]; Well no.=7958): 92.2% | remaining activity at 3.75 µM ([2]; Well no.=6236): 104% | remaining activity at 3.75 µM ([2]; Well no.=7958): 93.7%

COC[C@H]1OC(=O)c2coc3c2[C@@]1(C)C1=C(C3=O)C2CCC(=O)[C@@]2(C)C[C@H]1OC(C)=O (some centres unmarked) [Wortmannin from Penicillium funiculosum]
remaining activity at 1.25 µM ([1]; Well no.=1386): 92.9% | remaining activity at 3.75 µM ([2]; Well no.=1386): 94.7%

OC[C@@H](O)[C@@H](O)CO [meso-Erythritol]
remaining activity at 1.25 µM ([1]; Well no.=6547): 107% | remaining activity at 3.75 µM ([2]; Well no.=6547): 106%

Cc1cc(C)nc(NC(=S)N2CCN(Cc3ccc(C(F)(F)F)cc3)CC2)c1 [NCT-503]
remaining activity at 1.25 µM ([1]; Well no.=8538): 96.7% | remaining activity at 3.75 µM ([2]; Well no.=8538): 93.8%

COc1ccc(CN2C(=O)C(=O)c3cc(OC(F)(F)F)ccc32)cc1 [VU 0238429]
remaining activity at 1.25 µM ([1]; Well no.=8702): 97.3% | remaining activity at 3.75 µM ([2]; Well no.=8702): 93.7%

CC(=O)N[C@@H](C)C(=O)O [Ac-Ala-OH]
remaining activity at 1.25 µM ([1]; Well no.=8696): 96.5% | remaining activity at 3.75 µM ([2]; Well no.=8696): 96.8%

O=C1NCCCc2c1oc1ccc(O)cc21 [CID755673]
remaining activity at 1.25 µM ([1]; Well no.=6214): 104% | remaining activity at 3.75 µM ([2]; Well no.=6214): 96%

Cc1c(C(=O)O)c(O)cc2c1C(=O)c1c(O)c([C@@H]3O[C@H](CO)[C@@H](O)[C@H](O)[C@H]3O)c(O)c(O)c1C2=O [Carminic acid]
remaining activity at 1.25 µM ([1]; Well no.=3101): 102% | remaining activity at 3.75 µM ([2]; Well no.=3101): 103%

COC(=O)[C@@H]1[C@H]2C[C@H]3c4[nH]c5ccccc5c4CCN3C[C@@H]2CC[C@@H]1O [Yohimbine hydrochloride]
remaining activity at 1.25 µM ([1]; Well no.=1198): 105% | remaining activity at 3.75 µM ([2]; Well no.=1198): 104%

Oc1ncnc2[nH]ncc12 [Allopurinol]
remaining activity at 1.25 µM ([1]; Well no.=102): 106% | remaining activity at 1.25 µM ([1]; Well no.=2077): 104% | remaining activity at 3.75 µM ([2]; Well no.=102): 105% | remaining activity at 3.75 µM ([2]; Well no.=2077): 104%

CC1(NC(=O)CBr)CCC(C(C)(C)NCC(O)COc2cccc3[nH]ccc23)CC1 (racemic)
remaining activity at 1.25 µM ([1]; Well no.=1215): 99.4% | remaining activity at 3.75 µM ([2]; Well no.=1215): 102%

Cc1cc([N+](=O)[O-])ccc1NS(=O)(=O)c1cc(Cl)ccc1Cl [FH535]
remaining activity at 1.25 µM ([1]; Well no.=8814): 96.3% | remaining activity at 3.75 µM ([2]; Well no.=8814): 98.3%

CC(C)N(CCC(=O)c1ccc2ccccc2c1)Cc1ccccc1 [JAK3 Inhibitor IV]
remaining activity at 1.25 µM ([1]; Well no.=2459): 94% | remaining activity at 3.75 µM ([2]; Well no.=2459): 93.9%

CC(C)(O)CC(=O)O [3-Hydroxyisovaleric acid]
remaining activity at 1.25 µM ([1]; Well no.=6925): 108% | remaining activity at 3.75 µM ([2]; Well no.=6925): 98.6%

Nc1nc2c(cnn2CCc2ccccc2)c2nc(-c3ccco3)nn12 [SCH 58261]
remaining activity at 1.25 µM ([1]; Well no.=7907): 95.3% | remaining activity at 1.25 µM ([1]; Well no.=8309): 98.9% | remaining activity at 3.75 µM ([2]; Well no.=7907): 99.3% | remaining activity at 3.75 µM ([2]; Well no.=8309): 97.1%

CCOc1ccc(Cc2cc([C@@H]3O[C@H](SC)[C@@H](O)[C@H](O)[C@H]3O)ccc2Cl)cc1 [Sotagliflozin (LX4211)]
remaining activity at 1.25 µM ([1]; Well no.=8820): 97.4% | remaining activity at 3.75 µM ([2]; Well no.=8820): 95.6%

C=C1C[C@@]2(O)O[C@@]3(C[C@H]2C(C)C)[C@@H](C)CC[C@@H]13 [Curcumol]
remaining activity at 1.25 µM ([1]; Well no.=5202): 90.5% | remaining activity at 3.75 µM ([2]; Well no.=5202): 85.6%

CC1(C)NC(=O)N(c2ccc([N+](=O)[O-])c(C(F)(F)F)c2)C1=O [Nilutamide]
remaining activity at 1.25 µM ([1]; Well no.=1147): 100% | remaining activity at 3.75 µM ([2]; Well no.=1147): 101%

CCCc1nc(C)c2c(=O)nc(-c3cc(S(=O)(=O)N4CCN(CC)CC4)ccc3OCC)[nH]n12 [Vardenafil]
remaining activity at 1.25 µM ([1]; Well no.=1780): 97.7% | remaining activity at 3.75 µM ([2]; Well no.=1780): 97.8%

C[N+](C)(C)CCO [Choline bromide]
remaining activity at 1.25 µM ([1]; Well no.=93): 93.4% | remaining activity at 3.75 µM ([2]; Well no.=93): 97%

CCN(CC)CCCC(C)Nc1c2ccc(Cl)cc2nc2ccc(OC)cc12 (centres unmarked) [Quinacrine dihydrochloride]
remaining activity at 1.25 µM ([1]; Well no.=1173): 96.3% | remaining activity at 3.75 µM ([2]; Well no.=1173): 98.3%

Cc1cncc(CN2CCC(=C3c4ccc(Cl)cc4CCc4cccnc43)CC2)c1 [Rupatadine Fumarate]
remaining activity at 1.25 µM ([1]; Well no.=4925): 103% | remaining activity at 3.75 µM ([2]; Well no.=4925): 101%

O=C1C=C2C=C[C@@H]3C[C@@]2(O1)[C@H]1CCCCN31 [Securinine]
remaining activity at 1.25 µM ([1]; Well no.=3749): 99.6% | remaining activity at 3.75 µM ([2]; Well no.=3749): 100%

CC1(C)[C@@H](O[C@H]2O[C@H](C(=O)O)[C@@H](O)[C@H](O)[C@H]2O[C@@H]2O[C@H](C(=O)O)[C@@H](O)[C@H](O)[C@H]2O)CC[C@]2(C)[C@H]3C(=O)C=C4[C@@H]5C[C@@](C)(C(=O)O)CC[C@]5(C)CC[C@@]4(C)[C@]3(C)CC[C@@H]12 [Ammonium Glycyrrhizinate]
remaining activity at 1.25 µM ([1]; Well no.=8386): 97.7% | remaining activity at 3.75 µM ([2]; Well no.=8386): 99%

C=C[C@]12CN(C)[C@@H]3[C@H]4CO[C@H](C[C@H]41)[C@]1(C(=O)Nc4ccccc41)[C@@H]32
remaining activity at 1.25 µM ([1]; Well no.=3460): 98% | remaining activity at 3.75 µM ([2]; Well no.=3460): 99%

C=CC(=O)Nc1ccc2ncnc(Nc3ccc(OCc4cccc(F)c4)c(Cl)c3)c2c1 [AST-1306]
remaining activity at 1.25 µM ([1]; Well no.=5142): 101% | remaining activity at 3.75 µM ([2]; Well no.=5142): 100%

CC(C[N+](C)(C)C)OC(N)=O (centres unmarked) [Bethanechol chloride]
remaining activity at 1.25 µM ([1]; Well no.=322): 102% | remaining activity at 3.75 µM ([2]; Well no.=322): 102%
